{
  "source": "patent US20250009726A1",
  "about": "“A PHARMACEUTICAL COMPOSITION OF FXR AGONIST AND ITS PREPARATION METHOD” (GANNEX PHARMA CO., LTD., priority 2021, published 2025)",
  "format_in_all_cases": "physicochemical",
  "key": {"[1]": {"assay": "pKa of the compound of formula (I)", "excerpt": "(§1) The solubility of drugs in the acidic environment of the gastrointestinal tract is a prerequisite for their transmembrane transport and absorption into the human body to exert efficacy. Therefore, the very low solubility of the compound limits its use for development as a drug candidate."}, "[2]": {"assay": "Log D of the compound of formula (I)", "excerpt": "as §1"}, "[3]": {"assay": "Solubility in solvents (descriptive)", "excerpt": "as §1"}, "[4]": {"assay": "Compatibility test of API and excipients (strong light, high temperature, high humidity, 17 days)"}, "[5]": {"assay": "Related substances of pilot tablet batches and API (area normalization)", "details": "batch after manufacture", "excerpt": "The amount of impurities in each batch of samples were relatively stable and no significant change in the amount and type of impurities was observed after the tableting process."}, "[6]": {"assay": "Equilibrium solubility in media with different pH values (shaking 72 h, 37° C.)", "details": "for solubility thermodynamic at 72 h: thermodynamic from solid"}, "[7]": {"details": "normal temperatur, 92.5% RH-17 Days"}},
  "note": "“Also recorded” adds a separate entry of the source.",
  "data": [
    {"smiles": "O=C([O-])c1ccc(Oc2ccc3cc(OCc4c(-c5c(Cl)cccc5Cl)noc4C4CC4)ccc3c2)nc1.[Na+]", "note": "[COMPOUND I, 6-(6-(((5-cyclopropyl-3-(2,6-dichlorophenyl)isoxazol-4-yl)methoxy)naphthalene-2-yl)oxy) sodium nicotinate]", "values": [
      {"measurement": "pKa", "setting": "[1]", "value": 3.76},
      {"measurement": "logD", "setting": "[2]", "value": 5.76},
      {"measurement": "solubility", "setting": "[3]; 0.01 mol/L sodium hydroxide solutions", "value": "practically insoluble"},
      {"measurement": "solubility", "setting": "[3]; N, N-dimethylformamide", "value": "soluble"},
      {"measurement": "solubility", "setting": "[3]; acetonitrile", "value": "practically insoluble"},
      {"measurement": "solubility", "setting": "[3]; dimethyl sulfoxide", "value": "soluble"},
      {"measurement": "solubility", "setting": "[3]; ethyl acetate", "value": "practically insoluble"},
      {"measurement": "solubility", "setting": "[3]; methanol", "value": "soluble"},
      {"measurement": "solubility", "setting": "[3]; tetrahydrofuran", "value": "practically insoluble"},
      {"measurement": "solubility", "setting": "[3]; water", "value": "practically insoluble"},
      {"measurement": "Related substances (%) COMPOUND I-B", "setting": "[4]; 0 Day", "value": 0.2869, "unit": "%"},
      {"measurement": "Related substances (%) COMPOUND I-IM1", "setting": "[4]; 0 Day", "value": 0.2264, "unit": "%"},
      {"measurement": "Related substances (%) Other maximum impurities", "setting": "[4]; 0 Day", "value": 0.1001, "unit": "%"},
      {"measurement": "Related substances (%) Total impurities", "setting": "[4]; 0 Day", "value": 1.4056, "unit": "%"},
      {"measurement": "Related substances (%) COMPOUND I-B", "setting": "[4]; 25° C., 4500Lx-17 Days", "value": 0.2896, "unit": "%"},
      {"measurement": "Related substances (%) COMPOUND I-IM1", "setting": "[4]; 25° C., 4500Lx-17 Days", "value": 0.2338, "unit": "%"},
      {"measurement": "Related substances (%) Other maximum impurities", "setting": "[4]; 25° C., 4500Lx-17 Days", "value": 0.1135, "unit": "%"},
      {"measurement": "Related substances (%) Total impurities", "setting": "[4]; 25° C., 4500Lx-17 Days", "value": 1.4901, "unit": "%"},
      {"measurement": "Related substances (%) COMPOUND I-B", "setting": "[4]; 60° C.-17 Days", "value": 0.2964, "unit": "%"},
      {"measurement": "Related substances (%) COMPOUND I-IM1", "setting": "[4]; 60° C.-17 Days", "value": 0.2278, "unit": "%"},
      {"measurement": "Related substances (%) Other maximum impurities", "setting": "[4]; 60° C.-17 Days", "value": 0.1158, "unit": "%"},
      {"measurement": "Related substances (%) Total impurities", "setting": "[4]; 60° C.-17 Days", "value": 1.4686, "unit": "%"},
      {"measurement": "Related substances (%) COMPOUND I-B", "setting": "[4]; [7]", "value": 0.2836, "unit": "%"},
      {"measurement": "Related substances (%) COMPOUND I-IM1", "setting": "[4]; [7]", "value": 0.2318, "unit": "%"},
      {"measurement": "Related substances (%) Other maximum impurities", "setting": "[4]; [7]", "value": 0.1124, "unit": "%"},
      {"measurement": "Related substances (%) Total impurities", "setting": "[4]; [7]", "value": 1.4400, "unit": "%"},
      {"measurement": "total impurity fluctuations of related substances", "setting": "[4]; strong light, high temperature and high humidity, compared with 0 day", "value": "less than 0.5%"},
      {"measurement": "COMPOUND I-C", "setting": "[5]; criterion NMT 0.15%", "value": "Not detected"},
      {"measurement": "COMPOUND I-IM1", "setting": "[5]; criterion NMT 0.15%", "value": 0.12, "unit": "%"},
      {"measurement": "COMPOUND I-IM2", "setting": "[5]; criterion NMT 0.15%", "value": 0.12, "unit": "%"},
      {"measurement": "Any individual unspecified impurity", "setting": "[5]; criterion NMT 0.2%", "value": 0.048, "unit": "%"},
      {"measurement": "COMPOUND I-B", "setting": "[5]; criterion NMT 0.20%", "value": 0.015, "unit": "%"},
      {"measurement": "Total impurities", "setting": "[5]; criterion NMT 2.0%", "value": 0.47, "unit": "%"},
      {"measurement": "solubility thermodynamic at 72 h", "setting": "[6]; aqueous buffer, pH 6.0, 37° C.", "value": 1.5, "unit": "µg/mL"},
      {"measurement": "solubility thermodynamic at 72 h", "setting": "[6]; aqueous buffer, pH 6.8, 37° C.", "value": 217, "unit": "µg/mL"},
      {"measurement": "solubility thermodynamic at 72 h", "setting": "[6]; aqueous buffer, pH 7.0, 37° C.", "value": 365, "unit": "µg/mL"},
      {"measurement": "solubility thermodynamic at 72 h", "setting": "[6]; aqueous buffer, pH 8.0, 37° C.", "value": 20400, "unit": "µg/mL"},
      {"measurement": "solubility (in words)", "setting": "[6]; low pH (pH 1.0-5.0)", "value": "almost insoluble"},
      {"measurement": "solubility (in words)", "setting": "[6]; low pH (pH 1.0-5.0), listed as compound of formula (I)", "value": "practically insoluble"},
      {"measurement": "solubility (in words)", "setting": "[6]; pH 6.8", "value": "very slightly soluble"},
      {"measurement": "solubility (in words)", "setting": "[6]; pure water", "value": "sparingly soluble; also recorded: slightly soluble"},
      {"measurement": "solubility thermodynamic at 72 h", "setting": "[6]; water, pH 9.3, water, H2O (The final pH was around 9.3), 37° C.", "value": 22300, "unit": "µg/mL"}
    ]}
  ]
}
